Five compounds from ChEMBL document CHEMBL4818987, “Recent advances of podophyllotoxin/epipodophyllotoxin hybrids in anticancer activity, mode of action, and structure-activity relationship: An update (2010-2020)” (Eur J Med Chem, 2020) can be followed below.

One may read the IC50 as the concentration that gives 50% inhibition. Usually CC50 stands for the concentration at which the toxic effect on the cells reaches its halfway point. A higher CC50 goes with better tolerance by the cells.

Data set [1] deals with A549. Kind of data set: Antiproliferative activity against human A549 cells incubated for 48 hrs by MTT assay. The data set is classed as functional, cell-based. The following applies: A549, 48 h.
Data set [2] concerns MCF7. Kind of data set: Antiproliferative activity against human MCF7 cells incubated for 48 hrs by MTT assay. The settings on record: MCF7, 48 h. The data set is classed as functional, cell-based. In general terms: Tetrazolium assays rely on reduction of a dye to a coloured formazan, in cell work by metabolically active cells.
For data set [3], the system named is SW480. Kind of data set: Antiproliferative activity against human SW480 cells incubated for 48 hrs by MTT assay. The following applies: SW480, 48 h. The format is functional, cell-based.
Data set [4] relates to SMMC-7721. Kind of data set: Antiproliferative activity against human SMMC-7721 cells incubated for 48 hrs by MTT assay. The format is functional, cell-based. The following applies: SMMC-7721, 48 h.
The subject of data set [5] is HL-60. Kind of data set: Antiproliferative activity against human HL-60 cells incubated for 48 hrs by MTT assay. The data set is classed as functional, cell-based. The following applies: HL-60, 48 h.
A short description of data set [6]: Cytotoxicity against human BEAS2B cells. The data set is classed as cell-based. The settings on record: BEAS-2B cells.
The nature of data set [7]: Selectivity index, ratio of CC50 for human BEAS2B cells to IC50 for human HL60 cells. The settings on record: read-out: Ratio CC50/IC50. The data set is classed as toxicity.
The nature of data set [8]: Selectivity index, ratio of CC50 for human BEAS2B cells to IC50 for human SMMC7721 cells. The data set is classed as toxicity. The following applies: read-out: Ratio CC50/IC50.
Data set [9] is described as follows: Selectivity index, ratio of CC50 for human BEAS2B cells to IC50 for human A549 cells. The data set is classed as toxicity. The settings on record: read-out: Ratio CC50/IC50.
Data set [10] can be described thus: Selectivity index, ratio of CC50 for human BEAS2B cells to IC50 for human MCF7 cells. The following applies: read-out: Ratio CC50/IC50. The data set is classed as toxicity.
Data set [11] can be described thus: Selectivity index, ratio of CC50 for human BEAS2B cells to IC50 for human SW480 cells. The data set is classed as toxicity. The settings on record: read-out: Ratio CC50/IC50.
The target in data set [12] is Prostaglandin G/H synthase 2 (Mus musculus, UniProt Q05769). Description: Inhibition of mouse COX2.
Data set [13] concerns the target Prostaglandin G/H synthase 2 (Mus musculus, UniProt Q05769, V509I). Description: Inhibition of mouse COX2 V523I mutant.
Data set [14] concerns the target Prostaglandin G/H synthase 2 (Mus musculus, UniProt Q05769, S516A). Description: Inhibition of mouse COX2 S530A mutant.
Data set [15] has as its target Prostaglandin G/H synthase 2 (Mus musculus, UniProt Q05769, R106Q). Kind of data set: Inhibition of mouse COX2 R120Q mutant.
The next data set deals with RKO. Kind of data set: Antiproliferative activity against human RKO cells incubated for 48 hrs by CCK8 assay. The format is functional, cell-based.
The subject of data set [16] is HCT-116. Kind of data set: Antiproliferative activity against human HCT116 cells incubated for 48 hrs by CCK8 assay. The data set is classed as functional, cell-based. The settings on record: HCT-116, 48 h.
The next data set has as its system MDA-MB-231. Description: Antiproliferative activity against human MDA-MB-231 cells incubated for 48 hrs by CCK8 assay. The data set is classed as functional, cell-based. The following applies: MDA-MB-231, 48 h.
Data set [17] can be described thus: Antiproliferative activity against human HCA7 cells incubated for 48 hrs by CCK8 assay. The format is functional, cell-based. The following applies: HCA-7, 48 h.
The test system of another data set is IMR-5. Kind of data set: Antiproliferative activity against human IMR5 cells incubated for 48 hrs by CCK8 assay. The data set is classed as functional, cell-based. The following applies: IMR-5, 48 h.
The subject of the next data set is NCI-H292. Description: Antiproliferative activity against human NCI-H292 cells incubated for 48 hrs by CCK8 assay. The format is functional, cell-based. The settings on record: NCI-H292, 48 h.
The next data set relates to RAW264.7. Kind of data set: Antiproliferative activity against mouse RAW264.7 cells incubated for 48 hrs by CCK8 assay. The format is functional, cell-based. The settings on record: RAW264.7, 48 h.
Data set [18] can be described thus: Antitumor activity against human HNSCC-1483 cells xenografted in mouse assessed as reduction in tumor growth at 2 mg/kg administered for 14 days and measured on day 2 to day 15 by electronic caliper method relative to control. The format is functional. The following applies: MDA-1483, 336 h, time 14 day, read-out: TGI. In general terms: In xenograft studies the graft and the host belong to different species.

A further data set deals with DU-145. Description: Antiproliferative activity against human DU145 cells by MTT assay. The data set is classed as functional, cell-based.
The subject of data set [19] is MCF7. Kind of data set: Cytotoxicity against human MCF7 cells by MTT assay. The data set is classed as functional, cell-based.
Data set [20] deals with HL-60. Kind of data set: Antiproliferative activity against human HL-60 cells by MTT assay. The data set is classed as functional, cell-based.
Data set [21] deals with SMMC-7721. Description: Antiproliferative activity against human SMMC-7721 cells by MTT assay. The data set is classed as functional, cell-based.
In data set [22] the test system is A549. Description: Antiproliferative activity against human A549 cells by MTT assay. The format is functional, cell-based.
For data set [23], the system named is SW480. Description: Antiproliferative activity against human SW480 cells by MTT assay. The data set is classed as functional, cell-based.
Data set [24] has as its system A549. Kind of data set: Potency index, ratio of etoposide IC50 to test compound IC50 for antiproliferative activity against human A549 cells. The data set is classed as functional.
Data set [25] relates to HepG2. Kind of data set: Potency index, ratio of etoposide IC50 to test compound IC50 for antiproliferative activity against human HepG2 cells. The data set is classed as functional.
In data set [26] the test system is HepG2. Kind of data set: Antiproliferative activity against human HepG2 cells incubated for 3 days by MTT assay. The data set is classed as functional, cell-based. The following applies: HepG2, 72 h.
The subject of data set [27] is HCT-116. Kind of data set: Antiproliferative activity against human HCT116 cells incubated for 3 days by MTT assay. The data set is classed as functional, cell-based. The settings on record: HCT-116, 72 h.
In data set [28] the test system is A549. Description: Antiproliferative activity against human A549 cells incubated for 3 days by MTT assay. The following applies: A549, 72 h. The format is functional, cell-based.
The subject of data set [29] is HCT-116. Description: Potency index, ratio of etoposide IC50 to test compound IC50 for antiproliferative activity against human HCT116 cells. The format is functional.

Sequence of Prostaglandin G/H synthase 2 (Mus musculus, UniProt Q05769) (Q05769 whole entry): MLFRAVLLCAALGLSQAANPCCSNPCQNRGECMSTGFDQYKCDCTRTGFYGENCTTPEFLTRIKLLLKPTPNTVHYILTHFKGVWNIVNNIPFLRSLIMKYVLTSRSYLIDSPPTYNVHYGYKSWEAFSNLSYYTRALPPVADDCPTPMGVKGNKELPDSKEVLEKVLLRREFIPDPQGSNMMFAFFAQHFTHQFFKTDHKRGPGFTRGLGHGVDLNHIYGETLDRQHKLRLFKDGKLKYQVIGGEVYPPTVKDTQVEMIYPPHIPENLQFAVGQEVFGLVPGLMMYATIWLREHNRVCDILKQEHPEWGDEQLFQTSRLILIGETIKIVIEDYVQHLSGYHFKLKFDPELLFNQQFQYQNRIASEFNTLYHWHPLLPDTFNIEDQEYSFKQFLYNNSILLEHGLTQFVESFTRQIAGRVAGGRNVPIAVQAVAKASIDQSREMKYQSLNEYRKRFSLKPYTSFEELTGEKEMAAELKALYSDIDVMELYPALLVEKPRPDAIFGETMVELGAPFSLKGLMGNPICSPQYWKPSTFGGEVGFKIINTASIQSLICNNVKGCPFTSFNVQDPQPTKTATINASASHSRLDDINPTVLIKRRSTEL
Sequence of Prostaglandin G/H synthase 2 (Mus musculus, UniProt Q05769, R106Q) (Q05769 18-604 R106Q limits assumed): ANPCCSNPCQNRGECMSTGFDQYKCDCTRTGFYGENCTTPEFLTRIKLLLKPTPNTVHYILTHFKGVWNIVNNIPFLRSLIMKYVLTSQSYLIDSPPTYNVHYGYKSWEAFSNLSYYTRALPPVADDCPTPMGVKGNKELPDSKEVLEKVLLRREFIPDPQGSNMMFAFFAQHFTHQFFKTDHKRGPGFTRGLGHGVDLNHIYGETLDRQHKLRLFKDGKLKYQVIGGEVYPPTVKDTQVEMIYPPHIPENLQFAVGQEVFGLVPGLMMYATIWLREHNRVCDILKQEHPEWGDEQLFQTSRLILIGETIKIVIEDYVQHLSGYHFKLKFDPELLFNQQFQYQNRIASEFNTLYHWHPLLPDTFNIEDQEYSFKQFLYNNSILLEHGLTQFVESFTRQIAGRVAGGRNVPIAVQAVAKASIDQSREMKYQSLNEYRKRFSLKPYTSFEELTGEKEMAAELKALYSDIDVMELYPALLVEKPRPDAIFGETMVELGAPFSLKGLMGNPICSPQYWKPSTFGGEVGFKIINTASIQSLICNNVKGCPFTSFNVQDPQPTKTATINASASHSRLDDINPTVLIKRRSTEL
Sequence of Prostaglandin G/H synthase 2 (Mus musculus, UniProt Q05769, V509I) (Q05769 18-604 V509I limits assumed): as the sequence (Q05769 18-604 R106Q limits assumed) above, with Q89R, V492I counted along it
Sequence of Prostaglandin G/H synthase 2 (Mus musculus, UniProt Q05769, S516A) (Q05769 18-604 S516A limits assumed): as the sequence (Q05769 18-604 R106Q limits assumed) above, with Q89R, S499A counted along it

With `CCCC(=O)OC[C@H]1O[C@@H](OC(COCc2cn([C@@H]3c4cc5c(cc4[C@@H](c4cc(OC)c(OC)c(OC)c4)[C@H]4C(=O)OC[C@@H]43)OCO5)nn2)COCc2cn([C@@H]3c4cc5c(cc4[C@@H](c4cc(OC)c(OC)c(OC)c4)[C@H]4C(=O)OC[C@@H]43)OCO5)nn2)[C@H](OC(=O)CCC)[C@@H](OC(=O)CCC)[C@@H]1OC(=O)CCC` (stereo not given in full), the IC50 with A549 [1], in the data set with MCF7 [2], with SW480 [3], in the data set on SMMC-7721 [4] and in the data set with HL-60 [5] was 430 nM throughout. The compound also had a CC50 in data set [6] of 15400 nM. Further, the selectivity ratio in data set [7], in data set [8], in data set [9], in [10] and in data set [11] was 4.3 throughout.
On to `COc1ccc2c(c1)c(CC(=O)NCCCCNC(=O)CCC(=O)O[C@H]1c3cc4c(cc3[C@@H](c3cc(OC)c(OC)c(OC)c3)[C@H]3C(=O)OC[C@@H]31)OCO4)c(C)n2C(=O)c1ccc(Cl)cc1`, for which the 50% inhibitory concentration (IC50) was 90 nM in data set [12]; 90 nM in [13]; 90 nM in data set [14]; 90 nM in data set [15]; less than 30 nM with RKO; less than 30 nM in the data set on HCT-116 [16]. Besides, the IC50 (with MDA-MB-231; in data set [17]; in the data set on IMR-5; in the data set with NCI-H292; with RAW264.7) was less than 30 nM throughout. The inhibition in vivo at 2 mg/kg in data set [18] turned out to be 50%.
The compound `COc1cc([C@@H]2c3cc4c(cc3[C@@H](OCc3cn([C@@H]5O[C@H](COC(C)=O)[C@@H](OC(C)=O)[C@H](OC(C)=O)[C@H]5OC(C)=O)nn3)[C@H]3COC(=O)[C@H]23)OCO4)cc(OC)c1OC` came in with a 50% inhibitory concentration (IC50) in the data set with DU-145 of 1020 nM.
With `COc1cc([C@@H]2c3cc4c(cc3[C@@H](n3cc(CO[C@@H]5O[C@H](CO[C@@H]6O[C@H](CO)[C@@H](O)[C@H](O)[C@H]6O)[C@@H](O)[C@H](O)[C@H]5O)nn3)[C@H]3COC(=O)[C@H]23)OCO4)cc(OC)c1OC`, the IC50 in the data set with MCF7 [19], with HL-60 [20], in the data set with SMMC-7721 [21], in the data set with A549 [22] and with SW480 [23] was 670 nM in each case.
Turning to `COc1cc([C@@H]2c3cc4c(cc3[C@@H](NC(=S)NC(=O)c3ccccc3)[C@H]3COC(=O)[C@H]23)OCO4)cc(OC)c1OC`, the “Ratio IC50” value in the data set on A549 [24], in the data set on HepG2 [25] and in the data set with HCT-116 [29] was 49 each time. For the same compound, the IC50 with HepG2 [26], with HCT-116 [27] and with A549 [28] was 100 nM each time.
